The values that follow come from patent EP3753932A1, “SUBSTITUTED BICYCLIC DERIVATIVES HAVING MULTIMODAL ACTIVITY AGAINST PAIN” (priority 2019, dated 2020).

Where two headings read alike, the source gives them in different places.

Assay [1] concerns the target Human α2δ-1 subunit of Cav2.2 calcium channel (Homo sapiens, UniProt P54289). Description: Human α2δ-1 subunit of Cav2.2 calcium channel assay ([3H]-Gabapentin binding). The method, then:
Human α2δ-1 subunit of Cav2.2 calcium channel assay
Human α2δ-1 enriched membranes (2.5 µg) were incubated with 15 nM of radiolabeled [3H]-Gabapentin in assay buffer containing Hepes-KOH 10mM, pH 7.4. NSB (non specific binding) was measured by adding 10 µM pregabalin. The binding of the test compound was measured at either one concentration (% inhibition at 1 or 10 µM) or five different concentrations to determine affinity values (Ki). After 60 min incubation at 27 °C, binding reaction was terminated by filtering through Multiscreen GF/C (Millipore) presoaked in 0.5 % polyethyleneimine in Vacuum Manifold Station, followed by 3 washes with ice-cold filtration buffer containing 50 mM Tris-HCl, pH 7.4. Filter plates were dried at 60 °C for 1 hour and 30 µl of scintillation cocktail were added to each well before radioactivity reading. Readings were performed in a Trilux 1450 Microbeta radioactive counter (Perkin Elmer).

The next assay deals with T1, Human µ-opioid receptor (Homo sapiens, UniProt P35372).
T1 construct: expressed in transfected cells; host or cells: CHO-K1
T1 sequence (P35372 whole entry): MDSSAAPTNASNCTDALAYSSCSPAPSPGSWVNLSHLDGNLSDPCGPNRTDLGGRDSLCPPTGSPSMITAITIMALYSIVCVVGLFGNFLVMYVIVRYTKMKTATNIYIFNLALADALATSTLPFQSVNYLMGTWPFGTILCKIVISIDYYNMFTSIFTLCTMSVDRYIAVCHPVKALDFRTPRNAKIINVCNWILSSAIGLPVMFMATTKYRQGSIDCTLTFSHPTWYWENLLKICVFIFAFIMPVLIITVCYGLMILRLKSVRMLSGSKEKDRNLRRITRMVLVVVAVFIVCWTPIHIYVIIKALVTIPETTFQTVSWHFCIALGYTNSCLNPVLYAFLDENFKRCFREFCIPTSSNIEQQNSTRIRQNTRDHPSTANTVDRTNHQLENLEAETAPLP
Description: Human µ-opioid receptor radioligand assay ([3H]-DAMGO). The class given is binding. The method, then:
Human µ-opioid receptor radioligand assay
Transfected CHO-K1 cell membranes (20 µg) were incubated with [^3H]-DAMGO (1 nM) in assay buffer containing Tris-HCl 50 mM, MgCl2 5 mM at pH 7.4. NBS (non-specific binding) was measured by adding 10 µM Naloxone. The binding of the test compound was measured at either one concentration (% inhibition at 1 or 10 µM) or five different concentrations to determine affinity values (Ki). Plates were incubated at 27 °C for 60 min. After the incubation period, the reaction mixture was then transferred to MultiScreen HTS, FC plates (Millipore), filtered and plates were washed 3 times with ice-cold 10 mM Tris-HCl (pH 7.4). Filters were dried and counted at approximately 40% efficiency in a MicroBeta scintillation counter (Perkin-Elmer) using EcoScint liquid scintillation cocktail.

The mark [2] stands for this setting: human α2δ-1 enriched membranes, [3H]-Gabapentin 15 nM, read-out: α2δ-1 binding.
[3] abbreviates: transfected CHO-K1 cell membranes, [3H]-DAMGO 1 nM, read-out: µ-binding.

Sequence of Human α2δ-1 subunit of Cav2.2 calcium channel (P54289 25-1103): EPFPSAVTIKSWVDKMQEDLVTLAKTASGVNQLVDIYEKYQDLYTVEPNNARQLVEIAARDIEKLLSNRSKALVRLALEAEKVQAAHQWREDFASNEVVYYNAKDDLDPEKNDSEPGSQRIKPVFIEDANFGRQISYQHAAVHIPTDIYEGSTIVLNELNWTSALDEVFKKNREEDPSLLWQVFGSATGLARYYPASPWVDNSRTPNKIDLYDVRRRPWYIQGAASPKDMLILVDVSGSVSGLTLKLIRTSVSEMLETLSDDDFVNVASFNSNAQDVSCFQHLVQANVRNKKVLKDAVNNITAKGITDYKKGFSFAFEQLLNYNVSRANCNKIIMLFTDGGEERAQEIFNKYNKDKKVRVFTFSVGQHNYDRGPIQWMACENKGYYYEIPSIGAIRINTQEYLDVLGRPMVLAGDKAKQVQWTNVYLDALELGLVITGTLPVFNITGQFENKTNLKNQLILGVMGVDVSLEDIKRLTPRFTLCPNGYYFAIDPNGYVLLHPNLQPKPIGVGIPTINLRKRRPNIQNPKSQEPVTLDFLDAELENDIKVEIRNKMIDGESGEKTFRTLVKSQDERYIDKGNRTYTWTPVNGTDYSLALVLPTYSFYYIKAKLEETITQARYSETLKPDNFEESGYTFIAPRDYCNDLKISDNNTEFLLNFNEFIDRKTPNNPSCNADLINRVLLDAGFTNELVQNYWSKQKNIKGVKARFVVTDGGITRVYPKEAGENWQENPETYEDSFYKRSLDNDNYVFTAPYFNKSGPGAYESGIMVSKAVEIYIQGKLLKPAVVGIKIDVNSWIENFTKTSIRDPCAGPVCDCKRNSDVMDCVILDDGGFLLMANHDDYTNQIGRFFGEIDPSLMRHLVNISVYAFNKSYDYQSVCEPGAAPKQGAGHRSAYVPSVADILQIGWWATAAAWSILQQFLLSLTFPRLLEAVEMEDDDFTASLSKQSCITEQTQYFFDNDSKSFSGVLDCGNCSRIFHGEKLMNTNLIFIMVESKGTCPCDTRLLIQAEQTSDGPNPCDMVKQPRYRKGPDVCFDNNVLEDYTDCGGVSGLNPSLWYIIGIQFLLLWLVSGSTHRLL

With `CCC[C@@H](c1cnc2ccc(CN3CCC(c4cccc(O)c4)(N(C)C)CC3)cc2c1)N1C[C@@H](C)N[C@@H](C)C1` [Example 17, 3-(4-(Dimethylamino)-1-((3-((S)-1-((3S,5R)-3,5-dimethylpiperazin-1-yl)butyl)quinolin-6-yl)methyl)piperidin-4-yl)phenol], the Ki in assay [1] (setting [2]) was above 5000 nM; on Human µ-opioid receptor, below 100 nM.
Take `CCC[C@H](c1cnc2ccc(CN3CCC(c4ccccc4)(N(C)C)CC3)cc2c1)N1C[C@@H](C)N[C@@H](C)C1` [Example 18, 1-((3-((R)-1-((3S,5R)-3,5-Dimethylpiperazin-1-yl)butyl)quinolin-6-yl)methyl)-N,N-dimethyl-4-phenylpiperidin-4-amine]: the results for the Ki (in assay [1] (setting [2]); on Human µ-opioid receptor) were 500 to 5000 nM and 100 to 500 nM, respectively.
The like results for `CCC[C@@H](c1ncc2cc(CN3CCC(c4cccc(O)c4)(N(C)C)CC3)ccc2n1)N1C[C@@H](C)N[C@@H](C)C1` [Example 30, 3-(4-(Dimethylamino)-1-((2-((S)-1-((3S,5R)-3,5-dimethylpiperazin-1-yl)butyl)quinazolin-6-yl)methyl)piperidin-4-yl)phenol] were, in that order, above 5000 nM and below 100 nM.
In the case of `CCC[C@@H](c1ncc2cc(N3CCC(c4cccc(O)c4)(N(C)C)CC3)ccc2n1)N1C[C@@H](C)N[C@@H](C)C1` [Example 27, 3-(4-(Dimethylamino)-1-(2-((S)-1-((3S,5R)-3,5-dimethylpiperazin-1-yl)butyl)quinazolin-6-yl)piperidin-4-yl)phenol], the Ki is above 5000 nM in assay [1] and below 100 nM at Human µ-opioid receptor (setting [3]).
As to `CCC[C@H](c1ncc2cc(CN3CCC(c4cccc(O)c4)(N(C)C)CC3)ccc2n1)N1C[C@@H](C)N[C@@H](C)C1` [Example 29, 3-(4-(Dimethylamino)-1-((2-((R)-1-((3S,5R)-3,5-dimethylpiperazin-1-yl)butyl)quinazolin-6-yl)methyl)piperidin-4-yl)phenol], the Ki in assay [1] (setting [2]) was 500 to 5000 nM; at Human µ-opioid receptor, below 100 nM.
Regarding `CCCC(c1cnc2cc(CN3CCC(c4cccc(O)c4)(N(C)C)CC3)ccc2c1)N1C[C@@H](C)N[C@@H](C)C1` (stereo partly drawn) [Example 6, 3-(4-(Dimethylamino)-1-((3-(1-((3S,5R)-3,5-dimethylpiperazin-1-yl)butyl)quinolin-7-yl)methyl)piperidin-4-yl)phenol], the results for the Ki (in assay [1]; on Human µ-opioid receptor (setting [3])) were below 500 nM and below 100 nM, respectively.
As to `CCCC(c1cnc2ccc(CN3CCC(c4cccc(O)c4)(N(C)C)CC3)cc2c1)N1C[C@@H](C)N[C@@H](C)C1` (stereo partly drawn) [Example 15, 3-(4-(Dimethylamino)-1-((3-(1-((3S,5R)-3,5-dimethylpiperazin-1-yl)butyl)quinolin-6-yl)methyl)piperidin-4-yl)phenol], the Ki in assay [1] is below 500 nM; on Human µ-opioid receptor (setting [3]), below 100 nM.
As to `CCCC(c1ncc2cc(N3CCC(c4cccc(O)c4)(N(C)C)CC3)ccc2n1)N1C[C@@H](C)N[C@@H](C)C1` (stereo partly drawn) [Example 25, 3-(4-(Dimethylamino)-1-(2-(1-((3S,5R)-3,5-dimethylpiperazin-1-yl)butyl)quinazolin-6-yl)piperidin-4-yl)phenol], the Ki was above 5000 nM in assay [1] and below 100 nM at Human µ-opioid receptor (setting [3]).
On to `CCC[C@H](c1cnc2cc(N3CCC(c4cccc(O)c4)(N(C)C)CC3)ccc2c1)N1C[C@@H](C)N[C@@H](C)C1` [Example 4, 3-(4-(Dimethylamino)-1-(3-((R)-1-((3S,5R)-3,5-dimethylpiperazin-1-yl)butyl)quinolin-7-yl)piperidin-4-yl)phenol], for which the Ki is 500 to 5000 nM in assay [1] (setting [2]) and below 100 nM at Human µ-opioid receptor.
For the molecule `CCCC(c1ccc2cc(N3CCC(c4cccc(O)c4)(N(C)C)CC3)ccc2c1)N1C[C@@H](C)N[C@@H](C)C1` (stereo partly drawn) [Example 1, 3-(4-(Dimethylamino)-1-(6-(1-((3S,5R)-3,5-dimethylpiperazin-1-yl)butyl)naphthalen-2-yl)piperidin-4-yl)phenol], the Ki is above 5000 nM in assay [1] and below 100 nM at Human µ-opioid receptor (setting [3]).
For `CCC[C@H](c1cnc2ccc(CN3CCC(c4cccc(O)c4)(N(C)C)CC3)cc2n1)N1C[C@@H](C)N[C@@H](C)C1` [Example 38, 3-(4-(Dimethylamino)-1-((3-((R)-1-((3S,5R)-3,5-dimethylpiperazin-1-yl)butyl)quinoxalin-6-yl)methyl)piperidin-4-yl)phenol], the figures for the Ki (in assay [1]; at Human µ-opioid receptor (setting [3])) were below 500 nM and below 100 nM, respectively.
The corresponding values for `CCC[C@H](c1ncc2cc(N3CCC(c4cccc(O)c4)(N(C)C)CC3)ccc2n1)N1C[C@@H](C)N[C@@H](C)C1` [Example 26, 3-(4-(Dimethylamino)-1-(2-((R)-1-((3S,5R)-3,5-dimethylpiperazin-1-yl)butyl)quinazolin-6-yl)piperidin-4-yl)phenol] are above 5000 nM and below 100 nM.
Take `CCC[C@@H](c1cc2ccc(CN3CCC(c4cccc(O)c4)(N(C)C)CC3)cc2nc1CC)N1C[C@@H](C)N[C@@H](C)C1` [Example 24, 3-(4-(Dimethylamino)-1-((3-((S)-1-((3S,5R)-3,5-dimethylpiperazin-1-yl)butyl)-2-ethylquinolin-7-yl)methyl)piperidin-4-yl)phenol]: the Ki in assay [1] (setting [2]) is 500 to 5000 nM; on Human µ-opioid receptor, below 100 nM.
Take `CCC[C@@H](c1cnc2cc(CN3CCC(c4cccc(O)c4)(N(C)C)CC3)ccc2c1)N1C[C@@H](C)N[C@@H](C)C1` [Example 9, 3-(4-(Dimethylamino)-1-((3-((S)-1-((3S,5R)-3,5-dimethylpiperazin-1-yl)butyl)quinolin-7-yl)methyl)piperidin-4-yl)phenol]: the Ki is 500 to 5000 nM in assay [1] (setting [2]) and below 100 nM on Human µ-opioid receptor.
Regarding `CCC[C@H](c1cnc2ccc(N3CCC(c4cccc(O)c4)(N(C)C)CC3)cc2n1)N1C[C@@H](C)N[C@@H](C)C1` [Example 34, 3-(4-(Dimethylamino)-1-(3-((R)-1-((3S,5R)-3,5-dimethylpiperazin-1-yl)butyl)quinoxalin-6-yl)piperidin-4-yl)phenol], the Ki in assay [1] is below 500 nM; on Human µ-opioid receptor (setting [3]) it was below 100 nM.
`CCC[C@@H](c1cnc2ccc(CN3CCC(c4cccc(O)c4)(N(C)C)CC3)cc2n1)N1C[C@@H](C)N[C@@H](C)C1` [Example 39, 3-(4-(Dimethylamino)-1-((3-((S)-1-((3S,5R)-3,5-dimethylpiperazin-1-yl)butyl)quinoxalin-6-yl)methyl)piperidin-4-yl)phenol]: the figures for the Ki (in assay [1] (setting [2]); on Human µ-opioid receptor) were 500 to 5000 nM and below 100 nM, respectively.
Regarding `CCC[C@@H](c1cnc2ccc(N3CCC(c4cccc(O)c4)(N(C)C)CC3)cc2n1)N1C[C@@H](C)N[C@@H](C)C1` [Example 35, 3-(4-(Dimethylamino)-1-(3-((S)-1-((3S,5R)-3,5-dimethylpiperazin-1-yl)butyl)quinoxalin-6-yl)piperidin-4-yl)phenol], the Ki in assay [1] (setting [2]) was in the range of 500 to 5000 nM; on Human µ-opioid receptor, 100 to 500 nM.
In the case of `CCCC(c1nc2ccc(CN3CCC(c4cccc(O)c4)(N(C)C)CC3)cc2nc1CC)N1C[C@@H](C)N[C@@H](C)C1` (stereo partly drawn) [Example 40, 3-(4-(Dimethylamino)-1-((2-(1-((3S,5R)-3,5-dimethylpiperazin-1-yl)butyl)-3-ethylquinoxalin-6-yl)methyl)piperidin-4-yl)phenol], the Ki in assay [1] was below 500 nM; on Human µ-opioid receptor (setting [3]), below 100 nM.
